Patent US9849435B2, “Maleic anhydride polymer-stabilized microcapsules” (Firmenich SA, priority 2013, dated 2017)

Legend:
Oil properties: Log P = assay type: physicochemical; details: oil ingredient
[1] = Oil properties: volatility; assay type: physicochemical; details: oil ingredient

Row | SMILES | Log P (Oil properties: Log P) | Volatility [1] [µg/L] | logP (Oil properties: Log P)
1 | C/C=C/C(=O)C1C(C)C=CCC1(C)C (centres unmarked) [Delta-Damascone] | 4.16 | 371 | 
2 | C=CC(C)CCCC(C)(C)O (centres unmarked) [Dihydromycenol] | 3.47 | 1391 | 
3 | C=C(C)[C@H]1CC=C(C)CC1 [Limonene] | 4.38 | 14183 | 

Further lines, results first:

Row | Log P (Oil properties: Log P) | Volatility [1] [µg/L] | logP (Oil properties: Log P) | SMILES
4 |  |  | 1.52 | OCCc1ccccc1 [Phenylethyl Alcohol]
5 | 3.012 |  |  | CC(=O)/C=C/C1=C(C)CCCC1(C)C [β-Ionone]
